# Source: paper PMC12406203 (Journal of Medicinal Chemistry, 2025)
# Legend:
# Experiment in all cases: KINOMEscan
# Type in all cases: binding
# FGFR3 = target: T1, FGFR3 (Homo sapiens, UniProt P22607)
# T1 construct: purchased Eurofins DiscoverX, LLC; host or cells: E. coli (T7 phage) or HEK-293
# PKACα = target: T2, PKACα (Homo sapiens, UniProt P17612)
# T2 construct: purchased Eurofins DiscoverX, LLC; host or cells: E. coli BL21-derived host (T7 phage) or HEK-293
# TSSK1B = target: T3, TSSK1B (Homo sapiens, UniProt Q9BXA7)
# T3 construct: purchased Eurofins DiscoverX, LLC; host or cells: E. coli BL21-derived host (T7 phage) or HEK-293
# T3 sequence (Q9BXA7 1-367): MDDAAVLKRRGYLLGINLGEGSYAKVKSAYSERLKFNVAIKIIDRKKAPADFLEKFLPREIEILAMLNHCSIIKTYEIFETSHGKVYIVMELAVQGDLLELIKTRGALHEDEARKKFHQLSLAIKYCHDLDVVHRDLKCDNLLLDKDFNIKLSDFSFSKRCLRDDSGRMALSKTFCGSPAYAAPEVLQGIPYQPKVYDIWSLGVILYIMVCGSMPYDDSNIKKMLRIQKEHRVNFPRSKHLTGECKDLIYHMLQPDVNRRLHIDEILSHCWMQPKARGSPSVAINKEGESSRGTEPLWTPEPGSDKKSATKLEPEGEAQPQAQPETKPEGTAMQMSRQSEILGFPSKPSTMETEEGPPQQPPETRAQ
# CSF1R = target: T4, CSF1R (Homo sapiens, UniProt P07333)
# T4 construct: purchased Eurofins DiscoverX, LLC; host or cells: E. coli (T7 phage) or HEK-293
# T4 sequence (P07333 20-972): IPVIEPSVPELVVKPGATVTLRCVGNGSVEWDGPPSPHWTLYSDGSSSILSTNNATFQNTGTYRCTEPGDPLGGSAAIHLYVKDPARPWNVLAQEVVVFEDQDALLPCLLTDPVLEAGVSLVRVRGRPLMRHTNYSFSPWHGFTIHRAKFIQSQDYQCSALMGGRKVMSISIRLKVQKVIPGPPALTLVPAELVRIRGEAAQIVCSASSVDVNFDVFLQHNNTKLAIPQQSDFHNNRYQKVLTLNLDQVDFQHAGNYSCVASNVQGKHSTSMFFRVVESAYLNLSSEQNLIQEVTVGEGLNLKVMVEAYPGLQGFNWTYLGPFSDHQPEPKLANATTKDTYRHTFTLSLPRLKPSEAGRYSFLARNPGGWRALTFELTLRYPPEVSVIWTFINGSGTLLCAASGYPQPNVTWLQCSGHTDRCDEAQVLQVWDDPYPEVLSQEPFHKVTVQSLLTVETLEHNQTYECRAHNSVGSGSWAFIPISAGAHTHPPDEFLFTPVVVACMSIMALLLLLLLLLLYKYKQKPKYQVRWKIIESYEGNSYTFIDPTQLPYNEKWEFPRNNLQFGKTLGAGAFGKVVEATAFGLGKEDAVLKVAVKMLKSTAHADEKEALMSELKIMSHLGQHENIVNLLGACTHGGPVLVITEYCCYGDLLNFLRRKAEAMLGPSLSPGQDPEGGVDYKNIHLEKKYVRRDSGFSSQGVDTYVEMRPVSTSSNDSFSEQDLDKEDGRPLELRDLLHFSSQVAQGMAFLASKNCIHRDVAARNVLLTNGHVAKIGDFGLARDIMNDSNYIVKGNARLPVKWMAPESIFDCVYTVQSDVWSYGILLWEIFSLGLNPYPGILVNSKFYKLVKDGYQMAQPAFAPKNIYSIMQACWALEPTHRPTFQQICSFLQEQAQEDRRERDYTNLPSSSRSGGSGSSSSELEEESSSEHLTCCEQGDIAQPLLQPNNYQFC
# ACVR1B = target: T5, ACVR1B (Homo sapiens, UniProt P36896)
# T5 construct: purchased Eurofins DiscoverX, LLC; host or cells: E. coli BL21-derived (T7 phage) or HEK-293
# T5 sequence (P36896 24-505): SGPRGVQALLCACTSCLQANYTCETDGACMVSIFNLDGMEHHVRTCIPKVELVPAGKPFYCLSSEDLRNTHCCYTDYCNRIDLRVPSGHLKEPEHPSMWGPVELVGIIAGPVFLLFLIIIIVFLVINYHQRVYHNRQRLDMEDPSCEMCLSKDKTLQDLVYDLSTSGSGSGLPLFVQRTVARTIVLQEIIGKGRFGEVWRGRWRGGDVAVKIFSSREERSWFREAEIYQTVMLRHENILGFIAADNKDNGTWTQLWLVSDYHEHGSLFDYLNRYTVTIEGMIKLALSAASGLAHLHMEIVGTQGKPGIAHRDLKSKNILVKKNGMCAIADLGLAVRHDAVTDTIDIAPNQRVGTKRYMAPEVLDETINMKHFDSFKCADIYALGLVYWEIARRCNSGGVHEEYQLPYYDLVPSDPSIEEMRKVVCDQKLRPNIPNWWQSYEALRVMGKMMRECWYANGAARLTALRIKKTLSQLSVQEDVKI
# PIM2 = target: T6, PIM2 (Homo sapiens, UniProt Q9P1W9)
# T6 construct: purchased Eurofins DiscoverX, LLC; host or cells: E. coli BL21-derived host (T7 phage) or HEK-293
# T6 sequence (Q9P1W9 whole entry): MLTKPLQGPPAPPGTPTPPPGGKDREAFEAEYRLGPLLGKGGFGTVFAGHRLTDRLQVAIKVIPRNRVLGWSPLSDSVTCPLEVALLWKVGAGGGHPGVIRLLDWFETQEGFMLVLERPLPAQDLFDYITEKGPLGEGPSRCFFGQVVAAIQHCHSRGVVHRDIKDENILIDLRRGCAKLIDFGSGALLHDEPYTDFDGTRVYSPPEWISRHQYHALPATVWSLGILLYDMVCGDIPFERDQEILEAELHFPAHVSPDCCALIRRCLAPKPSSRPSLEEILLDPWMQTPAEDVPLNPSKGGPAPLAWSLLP
# EGFR(L858R) = target: T7, EGFR(L858R) (Homo sapiens, UniProt P00533, L858R)
# T7 construct: purchased Eurofins DiscoverX, LLC; host or cells: E. coli (T7 phage) or HEK-293
# IKKα = target: T8, IKKα (Homo sapiens, UniProt O15111)
# T8 construct: purchased Eurofins DiscoverX, LLC; host or cells: E. coli (T7 phage) or HEK-293
# T8 sequence (O15111 1-745): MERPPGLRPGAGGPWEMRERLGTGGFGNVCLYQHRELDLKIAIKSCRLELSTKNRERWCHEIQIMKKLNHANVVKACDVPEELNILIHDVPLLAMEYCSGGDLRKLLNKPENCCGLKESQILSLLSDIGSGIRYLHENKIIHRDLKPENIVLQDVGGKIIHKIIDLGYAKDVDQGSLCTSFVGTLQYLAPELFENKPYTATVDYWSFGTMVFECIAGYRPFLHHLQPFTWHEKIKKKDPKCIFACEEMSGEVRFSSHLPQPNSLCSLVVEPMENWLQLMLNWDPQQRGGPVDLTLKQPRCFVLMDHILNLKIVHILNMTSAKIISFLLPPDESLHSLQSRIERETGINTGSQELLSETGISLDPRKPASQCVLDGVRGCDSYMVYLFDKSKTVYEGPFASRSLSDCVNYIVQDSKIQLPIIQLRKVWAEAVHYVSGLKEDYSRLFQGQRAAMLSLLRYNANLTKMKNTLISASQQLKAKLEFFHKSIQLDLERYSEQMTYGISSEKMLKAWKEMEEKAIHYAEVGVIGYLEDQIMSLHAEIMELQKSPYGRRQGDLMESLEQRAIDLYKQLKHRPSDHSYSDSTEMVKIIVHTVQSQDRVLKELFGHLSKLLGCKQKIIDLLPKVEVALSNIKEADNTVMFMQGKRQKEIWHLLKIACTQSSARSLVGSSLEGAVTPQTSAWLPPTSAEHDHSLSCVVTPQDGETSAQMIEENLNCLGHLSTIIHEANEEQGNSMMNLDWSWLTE
# PCTK1 = target: T9, PCTK1 (Homo sapiens, UniProt Q00536)
# T9 construct: purchased Eurofins DiscoverX, LLC; host or cells: E. coli BL21-derived host (T7 phage) or HEK-293
# T9 sequence (Q00536 whole entry): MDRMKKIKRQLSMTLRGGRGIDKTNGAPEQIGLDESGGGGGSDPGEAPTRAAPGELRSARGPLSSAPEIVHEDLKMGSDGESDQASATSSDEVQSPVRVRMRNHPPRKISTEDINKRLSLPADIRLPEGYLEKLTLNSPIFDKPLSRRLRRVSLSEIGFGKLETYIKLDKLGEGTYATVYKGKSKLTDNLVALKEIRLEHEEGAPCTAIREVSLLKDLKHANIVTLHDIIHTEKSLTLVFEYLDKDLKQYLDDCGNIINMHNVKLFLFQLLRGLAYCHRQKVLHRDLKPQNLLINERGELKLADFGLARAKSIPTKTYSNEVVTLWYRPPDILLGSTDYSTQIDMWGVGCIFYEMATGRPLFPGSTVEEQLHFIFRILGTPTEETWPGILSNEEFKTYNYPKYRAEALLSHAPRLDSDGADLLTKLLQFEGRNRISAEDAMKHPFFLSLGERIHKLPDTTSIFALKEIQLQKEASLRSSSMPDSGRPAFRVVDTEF
# TRKA = target: T10, TRKA (Homo sapiens, UniProt P04629)
# T10 construct: purchased Eurofins DiscoverX, LLC; host or cells: E. coli BL21-derived host (T7 phage) or HEK-293
# T10 sequence (P04629 33-796): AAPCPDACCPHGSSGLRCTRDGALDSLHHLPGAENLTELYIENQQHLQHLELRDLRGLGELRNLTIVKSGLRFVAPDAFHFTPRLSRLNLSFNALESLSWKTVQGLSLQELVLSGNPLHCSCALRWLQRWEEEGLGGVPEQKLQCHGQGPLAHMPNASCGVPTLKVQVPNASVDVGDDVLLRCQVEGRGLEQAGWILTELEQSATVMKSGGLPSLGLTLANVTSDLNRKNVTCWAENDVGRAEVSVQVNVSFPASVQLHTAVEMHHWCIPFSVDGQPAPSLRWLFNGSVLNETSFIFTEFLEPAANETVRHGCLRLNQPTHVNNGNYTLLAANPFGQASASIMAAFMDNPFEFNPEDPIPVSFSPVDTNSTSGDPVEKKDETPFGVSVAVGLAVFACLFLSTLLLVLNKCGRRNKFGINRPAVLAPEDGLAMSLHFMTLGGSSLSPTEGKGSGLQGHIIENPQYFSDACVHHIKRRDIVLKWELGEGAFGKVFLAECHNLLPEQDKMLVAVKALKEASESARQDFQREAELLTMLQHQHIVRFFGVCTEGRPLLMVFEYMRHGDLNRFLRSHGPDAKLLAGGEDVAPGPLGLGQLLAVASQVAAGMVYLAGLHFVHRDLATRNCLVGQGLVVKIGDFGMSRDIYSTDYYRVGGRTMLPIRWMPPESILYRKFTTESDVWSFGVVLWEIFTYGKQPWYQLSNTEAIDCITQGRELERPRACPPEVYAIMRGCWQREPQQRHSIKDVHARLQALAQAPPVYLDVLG
# FGFR2 = target: T11, FGFR2 (Homo sapiens, UniProt P21802)
# T11 construct: purchased Eurofins DiscoverX, LLC; host or cells: E. coli (T7 phage) or HEK-293
# T11 sequence (P21802 22-821): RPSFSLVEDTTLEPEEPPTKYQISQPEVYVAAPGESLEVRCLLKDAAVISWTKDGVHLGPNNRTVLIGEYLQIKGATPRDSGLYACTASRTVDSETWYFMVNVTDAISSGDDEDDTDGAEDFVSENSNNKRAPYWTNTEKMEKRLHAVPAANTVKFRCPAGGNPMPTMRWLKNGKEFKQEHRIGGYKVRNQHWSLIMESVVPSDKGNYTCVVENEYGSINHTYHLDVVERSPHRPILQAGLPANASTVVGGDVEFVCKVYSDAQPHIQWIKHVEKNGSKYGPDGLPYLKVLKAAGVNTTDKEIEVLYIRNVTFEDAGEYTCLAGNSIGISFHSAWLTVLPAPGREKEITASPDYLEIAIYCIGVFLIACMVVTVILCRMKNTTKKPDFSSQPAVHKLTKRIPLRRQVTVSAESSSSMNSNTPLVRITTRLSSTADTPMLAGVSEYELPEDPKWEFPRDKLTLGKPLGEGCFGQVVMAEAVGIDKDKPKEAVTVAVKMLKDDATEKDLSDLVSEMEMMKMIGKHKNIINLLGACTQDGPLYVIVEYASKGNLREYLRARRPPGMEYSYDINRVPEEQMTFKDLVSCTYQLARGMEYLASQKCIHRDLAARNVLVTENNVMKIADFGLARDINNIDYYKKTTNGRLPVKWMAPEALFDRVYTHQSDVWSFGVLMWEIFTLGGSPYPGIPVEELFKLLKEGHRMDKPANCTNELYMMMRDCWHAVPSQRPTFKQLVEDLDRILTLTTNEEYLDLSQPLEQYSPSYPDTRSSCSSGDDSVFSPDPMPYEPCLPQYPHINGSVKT
# T1 sequence (P22607 23-806): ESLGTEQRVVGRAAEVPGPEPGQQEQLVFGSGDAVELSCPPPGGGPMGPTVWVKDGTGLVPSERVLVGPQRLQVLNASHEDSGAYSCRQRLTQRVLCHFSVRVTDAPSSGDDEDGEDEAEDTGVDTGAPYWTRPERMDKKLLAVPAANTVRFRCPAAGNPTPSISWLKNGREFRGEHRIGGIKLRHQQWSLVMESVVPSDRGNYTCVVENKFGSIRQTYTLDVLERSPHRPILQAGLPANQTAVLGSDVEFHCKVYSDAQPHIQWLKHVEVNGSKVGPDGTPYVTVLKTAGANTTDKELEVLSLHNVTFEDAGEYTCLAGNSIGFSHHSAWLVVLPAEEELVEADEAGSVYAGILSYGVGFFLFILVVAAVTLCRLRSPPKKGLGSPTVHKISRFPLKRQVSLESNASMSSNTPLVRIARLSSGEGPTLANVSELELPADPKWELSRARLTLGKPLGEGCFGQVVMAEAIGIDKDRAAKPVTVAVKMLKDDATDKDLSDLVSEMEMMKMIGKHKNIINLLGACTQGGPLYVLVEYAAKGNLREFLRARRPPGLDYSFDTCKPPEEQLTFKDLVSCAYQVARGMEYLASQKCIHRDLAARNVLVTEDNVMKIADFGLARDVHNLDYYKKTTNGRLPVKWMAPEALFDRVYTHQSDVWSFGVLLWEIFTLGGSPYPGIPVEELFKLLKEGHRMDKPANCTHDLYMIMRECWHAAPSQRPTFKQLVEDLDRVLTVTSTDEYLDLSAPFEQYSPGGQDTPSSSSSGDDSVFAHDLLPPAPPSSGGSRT
SMILES,RA @ 1000nM (FGFR3),RA @ 10000nM (FGFR3),RA @ 1000nM (PKACα),RA @ 10000nM (PKACα),RA @ 1000nM (TSSK1B),RA @ 10000nM (TSSK1B),RA @ 1000nM (CSF1R),RA @ 10000nM (CSF1R),RA @ 1000nM (ACVR1B),RA @ 10000nM (ACVR1B),RA @ 1000nM (PIM2),RA @ 10000nM (PIM2),RA @ 1000nM (EGFR(L858R)),RA @ 10000nM (EGFR(L858R)),RA @ 1000nM (IKKα),RA @ 10000nM (IKKα),RA @ 1000nM (PCTK1),RA @ 10000nM (PCTK1),RA @ 1000nM (TRKA),RA @ 10000nM (TRKA),other results
"CN(C)CCNC(=O)c1cc2c(cnn2CC2CCCCC2)cc1Cc1ccc(F)cc1F [Compound 95, 1-(Cyclohexylmethyl)-5-(2,4-difluorobenzyl)-N-(2-(dimethylamino)ethyl)-1H-indazole-6-carboxamide]",100%,92%,100%,94%,100%,79%,100%,79%,100%,100%,100%,100%,100%,100%,92%,75%,87%,79%,100%,92%,RA @ 1000nM (FGFR2): 100%; RA @ 10000nM (FGFR2): 100%
"CC(C)Cn1ncc2cc(Cc3ccc(F)cc3F)c(C(=O)NCCN(C)C)cc21 [Compound 94, 5-(2,4-Difluorobenzyl)-N-(2-(dimethylamino)ethyl)-1-isobutyl-1H-indazole-6-carboxamide]",100%,100%,100%,96%,77%,89%,100%,86%,100%,100%,100%,100%,100%,66%,82%,87%,96%,92%,98%,94%,RA @ 1000nM (FGFR2): 95%; RA @ 10000nM (FGFR2): 100%
